The record followed here is ChEMBL document CHEMBL5214933, “Discovery of Selenium-Containing STING Agonists as Orally Available Antitumor Agents” (J Med Chem, 2022).

Active and inactive are the calls of the source. The rule behind the calls is not given here.

A short description of data set [1]: Stability in dog plasma assessed as interconversion into (S)-4-(5,6-Dimethoxybenzo[b]selenophen-2-yl)-2-ethyl-4-oxobutanoic acid incubated for 24 hrs by normal-phase HPLC analysis. Type of data set: ADME, cell-free, Canis lupus familiaris.
A short description of data set [2]: Stability in human plasma assessed as parent compound remaining at 1 uM incubated for 24 hrs in presence of NADPH by LC-MS/MS analysis. Particulars: read-out: Stability. Type of data set: ADME, cell-free.
Data set [3] deals with Mus musculus. Put plainly: Immunostimulatory activity in naive […] mouse implanted with mouse MC38 cells assessed as increase in CD69-positive CD8 T cells in spleen at 30 mg/kg, po by FACS analysis (reference value: 8.9 %). Type of data set: functional, MC-38. On the technique in general: A flow cytometer gives signals particle by particle.
Data set [4] has as its target T1, Stimulator of interferon genes protein (Mus musculus) (UniProt Q3TBT3).
T1 sequence (whole entry): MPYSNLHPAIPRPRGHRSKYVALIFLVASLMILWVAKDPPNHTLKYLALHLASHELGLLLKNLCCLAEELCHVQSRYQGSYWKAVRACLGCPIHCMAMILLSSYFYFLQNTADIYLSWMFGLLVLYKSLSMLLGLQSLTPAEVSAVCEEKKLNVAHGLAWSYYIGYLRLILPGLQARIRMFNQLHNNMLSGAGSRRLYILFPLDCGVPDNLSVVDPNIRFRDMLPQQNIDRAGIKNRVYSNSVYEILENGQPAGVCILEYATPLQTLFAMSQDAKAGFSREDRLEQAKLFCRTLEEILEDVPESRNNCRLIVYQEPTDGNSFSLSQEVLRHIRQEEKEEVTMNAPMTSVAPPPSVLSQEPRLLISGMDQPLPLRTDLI
Put plainly: Agonist activity at STING in mouse MEF cells assessed as increase in IFNbeta mRNA expression at 10 uM measured after 3 hrs by qRT-PCR analysis. Type of data set: cell-based. Particulars: filed as agonist. On the technique in general: In qPCR the cycle at which signal appears reflects the starting amount.

As for `CC[C@H](CC(=O)c1cc2cc(OC)c(OC)cc2[se]1)C(=O)O`, the Stability result in data set [1] is recorded as “Stable”. Moreover, the remaining at 24 h, 1 µM in data set [2] came to 98%. Also, the Activity in data set [3] is recorded as 94.2%. Further, the result in data set [4] was Active.
